Experimental data reported in US10745393B2, “Small molecular probes, processes and use thereof” (JAWAHARLAL NEHRU CENTRE FOR ADVANCED SCIENTIFIC RESEARCH, priority 2014, dated 2020).
“Also recorded” adds a separate entry of the source. Marks after values point to notes of the source that are not given here.

Assays:
[1] = Absorption, emission and quantum yield of probes in Tris-HCl buffer without DNA; format: physicochemical
(AT)10 = assay: Absorption / fluorescence response of probes with dsDNA (AT)10; format: binding; conditions: probe 10 μM
(D2)mix [2] = assay: Fluorescence response of probes with dsDNA (D2)mix; format: binding
(GC)10 [3] = assay: Fluorescence response / quantum yield of probes with dsDNA (GC)10; format: binding
[4] = tested on: ssDNA oligonucleotides (dA10, dT10, dG10 and dC10); assay: Fluorescence emission in presence of ssDNA oligonucleotides; format: binding; conditions: probe 10 μM, Tris-HCl buffer
calf-thymus DNA (ct-DNA) = assay: Fluorescence response in presence of calf-thymus DNA; format: binding; conditions: TC 10 μM, ct-DNA 200 μg/mL
Excerpt: Furthermore, the fluorescence response of TC in presence of calf-thymus DNA (ct-DNA) is also studied.

(AT)20 [5] = assay: Thermal denaturation (UV-melting) of dsDNA with probe TC; format: binding
(GC)10 [6] = assay: as above; format: binding
(D2)mix [7] = assay: as above; format: binding
(AT)20 [8] = assay: Agarose gel electrophoresis staining of dsDNA band; format: binding; conditions: 3% agarose gel, about 0.6 μg dsDNA, UV-illumination
(D1)mix = assay: Agarose gel electrophoresis staining of dsDNA band; format: binding; conditions: 3% agarose gel, about 0.6 μg dsDNA, UV-illumination
(D2)mix [9] = assay: Agarose gel electrophoresis staining of dsDNA band; format: binding; conditions: 3% agarose gel, about 0.6 μg dsDNA, UV-illumination
DNA = assay: Comparison of DNA dyes: sequence selectivity and fluorescence of free/DNA bound dye; format: binding
cells [10] = assay: Comparison of DNA dyes: cell permeability; format: cell-based; conditions: Table 3, probe of the disclosure
cells [11] = assay: Comparison of DNA dyes: toxicity; format: cell-based; conditions: Table 3, probe of the disclosure
Excerpt: The major advantages of probe TC are: longer excitation/emission wavelengths (which avoids the cell damage due to the UV-light absorption commonly observed with probes like DAPI and Hoechst dyes, and auto-fluorescence from the cellular organelles and biomolecules), larger stoke shift (this provides additional advantage that avoids the self-absorption of higher energy part of their emission, useful in FRET and BRET based assays), good cell permeability (this is the major limitation of existing probes like propidium iodide, TO-PRO-dyes), non-toxicity (toxicity is the major limitation of NIR-fluorescence probes like DRAQ5 probe) and specific staining (commonly observed with SYTO and other dyes are non-specific in nature). Many commercial/reported dyes in literature are known to bind single stranded DNA, RNA etc. The probe TC is highly specific to double stranded DNA. […] In presence of AT-rich DNA, TC is a better probe than EtBr and PI which are highly toxic to cells.

HeLa S3 cells = assay: Confocal fluorescence nuclear staining, co-staining with Hoechst 33258; format: cell-based; conditions: TC 5 μM
HEK293 cells [12] = assay: Nuclear staining with cytoplasmic marker α-tubulin; format: cell-based; conditions: TC 5 μM
HEK293 cells [13] = assay: DNase I and RNase digestion studies; format: cell-based; conditions: 2 hours
Method: DNase I is known to degrade nuclear DNA while RNase degrades RNA in the cytoplasm by catalyzing phosphodiester bonds cleavage. HEK293 cells are fixed with chilled methanol for about 1 minute at room temperature and permeabilized with 0.1% Triton X-100 in PBS for about 2×5 minutes. After rinsing with PBS twice, for one set of experiments, cells are treated with probe TC (5 μM) for about 15 min at room temperature in three adjacent wells. A total of about 200 μL PBS (as control experiment), about 100 μg/mL DNase I (Sigma), or about 30 μg/ml DNase-Free RNase (GE) is added into the three adjacent wells and incubated at about 37° C. for about 2 hours. For another set of experiments, instead of treating with probe TC, cells are only treated with about 200 μL PBS (as control experiment), about 100 μg/ml DNase I (Sigma), or about 30 μg/mL DNase-Free RNase (GE) by adding into the three adjacent wells and incubating at about 37° C. for about 2 hours. […] After two more washes in PBS with 0.1% Triton X-100, the cover slips are washed in PBS, rinsed in ddH2O and briefly dipped in 100% ethanol. After a quick dry, cover slips are mounted with 70% glycerol. Images are captured using a Carl Zeiss Laser Scanning Microscope (LSM510 META) using an equal exposure time for control, DNase I, and RNase experiments. Experiments are done in duplicate.

HEK293 cells [14] = assay: MTT cytotoxicity assay; format: cell-based
Method: 10,000 HEK293 cells are seeded in 96-well plate and cultured for about 12 hours. […] Water is used as a control. About 20 μL of MTT (about 5 mg/mL) is added in each well, incubated for about 3 hours at about 37° C. and about 100 μL of DMSO is added. Readings are taken at about 570 nm in ELISA reader (VERSA Max microplate reader, Molecular Devices). The data is normalized with control and plotted with mean and standard error.

[15] = tested on: (AT)20-Hoechst 33258 complex; assay: Competitive binding / FRET / CD study with preformed Hoechst complex; conditions: Hoechst 4 μM + (AT)20, TC 0 to 40 μM, CD signal
Plasmodium falciparum = assay: Live cell fluorescence imaging of malaria parasites in erythrocytes; format: cell-based, P. falciparum 3D7 strain; conditions: (FIG. 38 legend 1 and 2 μM), 30 minutes
HepG2 cells = assay: Confocal fluorescence staining of mammalian cells at low probe concentration; format: cell-based, human; conditions: (FIG. 44 legend 2 μM)
Aβ42 aggregates = Aβ42 aggregates (Homo sapiens, UniProt P05067); assay: Absorption / fluorescence response with Aβ42 fibrillar aggregates; format: binding
[16] = target: ThT/Aβ42 aggregate complex (Homo sapiens, UniProt P05067); assay: ThT displacement / FRET assay; format: binding; conditions: decay at 483 nm, enhancement at 654 nm
[17] = Table 3, probe of the disclosure

Sequence of Aβ42 aggregates (P05067 672-713 limits assumed): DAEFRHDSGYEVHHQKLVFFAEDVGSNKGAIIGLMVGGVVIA
Sequence of ThT/Aβ42 aggregate complex (P05067 672-713 limits assumed, one chain of several): as the sequence (P05067 672-713 limits assumed) above

CCN(CC)c1ccc2cc(/C=C/c3sc4ccccc4[n+]3C)c(=O)oc2c1 [TC, (E)-3-(2-(N-methyl-benzo[d]thiazol-2-yl)vinyl)-7-(diethylamino)-2H-chromen-2-one]
ΦF in Buffer ([1]; Tris-HCl buffer (100 mM, pH 7.4), absence of DNA): 0.03
emission (fluorescence) maxima ([1]; Tris-HCl buffer, no DNA, very weak fluorescence): 641 nm
absorption maxima ([1]; probe 10 μM, Tris-HCl buffer, no DNA): 528 nm
emission maxima in presence of (AT)10 ((AT)10): 616 nm
fluorescence enhancement in presence of (AT)10 ((AT)10; DNA 0 to 12 μM): ~8 fold
fluorescence enhancement in presence of (D2)mix ((D2)mix [2]; TC 10 μM, DNA 0 to 12 μM): ~1.5 fold
fluorescence enhancement in presence of (D2)mix ((D2)mix [2]; increasing concentrations of TC (1 μM to 20 μM), FIG. 10): ~1.5 fold
ΦF with (GC)10 ((GC)10 [3]; Tris-HCl buffer (100 mM, pH 7.4)): 0.04
fluorescence change in presence of (GC)10 ((GC)10 [3]; probe 10 μM): does not show such fluorescence enhancement
emission behaviour in presence of ssDNA [4]: do not show significant changes in the emission behaviour
fluorescence response in presence of ct-DNA (calf-thymus DNA (ct-DNA)): strong fluorescence enhancement
Tm(DNA + TC) ((AT)20 [5]): 49.7 °C
Tm(DNA + TC) ((GC)10 [6]): 60.3 °C
Tm(DNA + TC) ((D2)mix [7]): 73.5 °C
ΔTm ((D2)mix [7]; TC bound vs unbound): 1.6 °C
gel staining of (AT)20 band ((AT)20 [8]): strong fluorescence intensity
gel staining of (D1)mix band ((D1)mix): strong fluorescence intensity
gel staining of (D2)mix band ((D2)mix [9]): strong fluorescence intensity
Fluorescence maxima DNA bound dye (DNA; [17]): 610 nm
Fluorescence maxima free dye (DNA; [17]): 641 nm
Fluorescence qauntum yield (ΦF) DNA bound dye (DNA; Table 3, superscript b): 0.36^b
preferential binding affinity, AT-sites versus GC-sites (DNA; fluorescence studies with dsDNAs): towards AT-sites than GC-sites
Cell permeability (cells [10]): Permeable
Toxicity (cells [11]): Non-Toxic
nuclear staining of HeLa S3 cells (HeLa S3 cells): selective targeting to the cell nucleus
co-localization with cytoplasmic marker α-tubulin (HEK293 cells [12]): does not co-localize with cytoplasmic marker α-tubulin
fluorescence nuclear staining after DNase I digestion (HEK293 cells [13]; DNase I about 100 μg/mL): almost completely diminished
fluorescence nuclear staining after RNase digestion (HEK293 cells [13]; RNase about 30 μg/mL): does not affect the fluorescence staining
cytotoxicity, dose dependent MTT (HEK293 cells [14]; HEK293 cells, 2.5, 5 and 7.5 μM, about 30 minutes): non-toxic
viable cells (HEK293 cells [14]; HEK293 cells, about 5 μM TC, about 24 hours): about 64%
competition with Hoechst for minor groove binding site [15]: not competing with Hoechst for binding site in the minor groove of dsDNA
staining of trophozoite stage parasites in red blood cells (Plasmodium falciparum): specifically binds to the parasite cells within the red blood cells; also recorded: accumulated specifically in the nucleus of the parasitized red blood cell
fluorescence / uptake in HepG2 cells (HepG2 cells): does not show any detectable fluorescence; also recorded: No detectable uptake
absorption maximum TC/fibril (Aβ42 aggregates; Experiment): 595 nm
quantum yield upon binding with Aβ42 aggregates (Aβ42 aggregates; TC 2 μM): 40%
persistence of fluorescence of stained Aβ42 aggregates (Aβ42 aggregates; aging): retain red fluorescence even after 50 days of aging
emission maximum in presence of Aβ42 aggregates (Aβ42 aggregates; probe 2 μM): 654 nm
fluorescence enhancement in presence of Aβ42 aggregates (Aβ42 aggregates; probe 2 μM, PBS buffer): ~30 fold
displacement of ThT from ThT/Aβ42 aggregate complex [16]: effective displacement of ThT by TC
